Experimental data reported in patent publication US8722582B2, “Thermodynamically stable crystal modification of 2-({2-chloro-4-(methylsulfonyl)-3-[(2,2,2-trifluoroethoxy)methyl]phenyl} carbonyl)cyclohexane-1,3-dione” (Bayer Cropscience AG, priority 2007, dated 2014).

Key:
[1] = Tests in practice of suspension formulations; assay type: physicochemical; conditions: tembotrione finely ground in solid form, spontaneously or over a relatively long period of time
Source text: Tembotrione, which is known, for example, from WO 00/21924 (example No. 3 in table 1), has herbicidal properties and is suitable for preparing crop protection compositions used for weed control. […] User-friendly presentation forms are, for example, suspension formulations in which tembotrione is present finely ground in solid form. […] The crystal growth may occur spontaneously or over a relatively long period of time and is unpredictable.

[2] = Stability test: storage of an oil dispersion; assay type: physicochemical; conditions: oil dispersion of tembotrione; after several weeks of storage; compared to oil dispersion of crystal modification II, III or a mixture thereof

Row | SMILES | crystal growth, agglomeration and precipitation in suspension formulation [1] | signs of agglomeration and precipitation on storage [2]
1 | CS(=O)(=O)c1ccc(C(=O)C2C(=O)CCCC2=O)c(Cl)c1COCC(F)(F)F [tembotrione, 2-({2-chloro-4-(methylsulfonyl)-3-[(2,2,2-trifluoroethoxy)methyl]phenyl}carbonyl)cyclohexan-1,3-dione] | leads to crystal growth and, as a consequence thereof, to agglomeration and precipitation | 
2 | CS(=O)(=O)c1ccc(C(=O)C2C(=O)CCCC2=O)c(Cl)c1COCC(F)(F)F [crystal modification I, 2-({2-chloro-4-(methylsulfonyl)-3-[(2,2,2-trifluoroethoxy)methyl]phenyl}carbonyl)cyclohexan-1,3-dione] |  | no signs of agglomeration and precipitation
